Source: ChEMBL document CHEMBL1157764, “Conserved high activity binding peptides are involved in adhesion of two detergent-resistant membrane-associated merozoite proteins to red blood cells during invasion” (J Med Chem, 2010)
The source made the active and inactive calls. No cut-off for these calls is given here.

Legend:
Plasmodium falciparum [1] = experiment: Antiplasmodial activity against Plasmodium falciparum FCB2 assessed as inhibition of merozoite invasion of human RBCs at 1.85 mg/mL after 18 hrs using hydroethidine staining by flow cytometry; type: functional; set-up: scale not given: the % may be the effect or the level left
Homo sapiens [2] = species: Homo sapiens; experiment: Binding affinity to RBC membrane receptor in 150 uU/mL neuraminidase pretreated human RBCs relative to untreated RBCs
Homo sapiens [3] = species: Homo sapiens; experiment: Binding affinity to RBC membrane receptor in 1 mg/mL chymotrypsin pretreated human RBCs relative to untreated RBCs
Plasmodium falciparum [4] = experiment: Antiplasmodial activity against Plasmodium falciparum FCB2 assessed as inhibition of merozoite invasion of human RBCs at 200 uM after 18 hrs using hydroethidine staining by flow cytometry; type: functional; details: FCB2, 18 h
[5] = Binding affinity to RBC membrane receptor in human RBCs assessed as dissociation constant by gamma counter
Plasmodium falciparum [6] = experiment: Antiplasmodial activity against Plasmodium falciparum FCB2 assessed as inhibition of merozoite invasion of human RBCs at 100 uM after 18 hrs using hydroethidine staining by flow cytometry; type: functional; details: FCB2, 18 h
Homo sapiens [7] = species: Homo sapiens; experiment: Binding affinity of radio labeled compound to 68 kDa RBC membrane receptor in human RBCs cross-linked with bis-(sulfosuccinimidyl)suberate by autoradiography using SDS-PAGE
Homo sapiens [8] = species: Homo sapiens; experiment: Binding affinity of radio labeled compound to 170 kDa RBC membrane receptor in human RBCs cross-linked with bis-(sulfosuccinimidyl)suberate by autoradiography using SDS-PAGE
Homo sapiens [9] = species: Homo sapiens; experiment: Binding affinity of radio labeled compound to 85 kDa RBC membrane receptor in human RBCs cross-linked with bis-(sulfosuccinimidyl)suberate by autoradiography using SDS-PAGE
Homo sapiens [10] = species: Homo sapiens; experiment: Binding affinity to RBC membrane receptor in human RBCs assessed as specific binding activity measured as ratio of specifically bound peptide/added peptide by gamma counter
Homo sapiens [11] = species: Homo sapiens; experiment: Binding affinity of radio labeled compound to 47 kDa RBC membrane receptor in human RBCs cross-linked with bis-(sulfosuccinimidyl)suberate by autoradiography using SDS-PAGE
Homo sapiens [12] = species: Homo sapiens; experiment: Binding affinity to RBC membrane receptor in 1 mg/mL trypsin pretreated human RBCs relative to untreated RBCs
Homo sapiens [13] = species: Homo sapiens; experiment: Binding affinity of radio labeled compound to 78 kDa RBC membrane receptor in human RBCs cross-linked with bis-(sulfosuccinimidyl)suberate by autoradiography using SDS-PAGE
Plasmodium falciparum [14] = experiment: Antiplasmodial activity against Plasmodium falciparum FCB2 assessed as inhibition of merozoite invasion of human RBCs at 1.9 mg/mL after 18 hrs using hydroethidine staining by flow cytometry; type: functional; set-up: scale not given: the % may be the effect or the level left

| Compound | Activity (Homo sapiens [2]) [%] | Activity (Homo sapiens [3]) [%] | Kd [5] [nM] | Activity (Homo sapiens [7]) | Activity (Homo sapiens [8]) | Activity (Homo sapiens [9]) | Activity (Homo sapiens [10]) [%] | Activity (Homo sapiens [11]) | Activity (Homo sapiens [12]) [%] | Activity (Homo sapiens [13]) | Activity (Plasmodium falciparum [1]) [%] | inhibition at 200 µM (Plasmodium falciparum [4]) [%] | inhibition at 100 µM (Plasmodium falciparum [6]) [%] | Activity (Plasmodium falciparum [14]) [%] |
| --- | --- | --- | --- | --- | --- | --- | --- | --- | --- | --- | --- | --- | --- | --- |
| CCN(CC)CCCC(C)Nc1ccnc2cc(Cl)ccc12 (configuration not stated) [CHLOROQUINE] |  |  |  |  |  |  |  |  |  |  | 68 |  |  |  |
| CC[C@H](C)[C@H](NC(=O)[C@H](Cc1cnc[nH]1)NC(=O)[C@H](CC(N)=O)NC(=O)[C@H](CCCNC(=N)N)NC(=O)[C@@H](NC(=O)[C@@H](N)Cc1ccc(O)cc1)[C@@H](C)CC)C(=O)N[C@@H](CC(=O)O)C(=O)N[C@@H](CC(C)C)C(=O)N[C@@H](CC(=O)O)C(=O)N[C@@H](Cc1ccccc1)C(=O)N1CCC[C@H]1C(=O)N[C@@H](Cc1ccccc1)C(=O)N[C@@H](CC(=O)O)C(=O)N[C@H](C(=O)N[C@@H](CC(=O)O)C(=O)N[C@H](C(=O)N[C@H](C(=O)N[C@@H](CCCCN)C(=O)N[C@@H](CC(C)C)C(=O)N[C@@H](Cc1ccc(O)cc1)C(=O)O)C(C)C)[C@H](C)O)[C@H](C)O | 120 | 90 | 800 | Active | Active | Active | > 2 | Active | 29 | Active |  | -3 | 76 |  |
| O=C(O)CN(CCOCCOCCN(CC(=O)O)CC(=O)O)CC(=O)O [EGTAZIC ACID] |  |  |  |  |  |  |  |  |  |  |  |  |  | 81 |

The next lines start with results.

| Activity (Homo sapiens [2]) [%] | Activity (Homo sapiens [3]) [%] | Kd [5] [nM] | Activity (Homo sapiens [7]) | Activity (Homo sapiens [8]) | Activity (Homo sapiens [9]) | Activity (Homo sapiens [10]) [%] | Activity (Homo sapiens [11]) | Activity (Homo sapiens [12]) [%] | Activity (Homo sapiens [13]) | Compound | Activity (Plasmodium falciparum [1]) [%] | inhibition at 200 µM (Plasmodium falciparum [4]) [%] | inhibition at 100 µM (Plasmodium falciparum [6]) [%] | Activity (Plasmodium falciparum [14]) [%] |
| --- | --- | --- | --- | --- | --- | --- | --- | --- | --- | --- | --- | --- | --- | --- |
| 25 | 87 | 510 |  |  | Active | > 2 |  | 50 | Active | CC[C@H](C)[C@H](NC(=O)[C@H](CCCNC(=N)N)NC(=O)[C@H](CCC(=O)O)NC(=O)[C@H](Cc1cnc[nH]1)NC(=O)[C@@H](NC(=O)[C@H](CC(C)C)NC(=O)[C@H](Cc1c[nH]c2ccccc12)NC(=O)[C@H](CCCCN)NC(=O)[C@H](CCCCN)NC(=O)[C@H](CCCCN)NC(=O)[C@H](CCCCN)NC(=O)[C@H](CC(N)=O)NC(=O)[C@H](C)NC(=O)[C@H](CC(=O)O)NC(=O)[C@@H](N)C(C)C)[C@@H](C)O)C(=O)N[C@@H](CC(C)C)C(=O)N[C@@H](CCCCN)C(=O)N[C@@H](CCCCN)C(=O)N[C@@H](CC(C)C)C(=O)N[C@@H](CCC(N)=O)C(=O)N[C@@H](Cc1ccc(O)cc1)C(=O)O |  | 11 | 37 |  |
| 13 | 59 | 800 |  |  | Active | > 2 |  | 105 | Active | H-DNNKECLIDPLDVQKNLLNEY-OH |  | 4 | 36 |  |
